Results: US20220202739A1, “ENDOCANNABINOID MIMETIC AND ANTI-INFLAMMATORY COMPOUND CONTAINING COMPOSITIONS, METHODS OF PREPARATION AND USES THEREOF” (priority 2019, published 2022)
Where two headings read alike, the source gives them in different places.

What was measured:
Type in all cases: cell-based
[1] = system: TRPV1; test: Gene expression custom microarray, human skin fibroblasts (Example 1): TRPV1; settings: 10 uM, 24 hr
Source text: (§1) Cell cultures: A human skin fibroblast cell culture (or cultures) was obtained through the Coriell Cell Repository from the National Institute on Aging Cell Repository (Camden, N.J.), or Promocell GmbH (Heidelberg, Germany). The initial culture was selected from the following cell lines: AG13066, AG11557, AG11796 or GM03651E. The cell lines were derived from donors as follows:
(§2) Experimental phase: When the appropriate quantity of cells had been grown, they were detached as described above, but at the final step were seeded into each well of one or more 6 well dishes. Each well received 2 ml of the cell suspension so they were seeded equally. The dishes were returned to the incubator until 85-95% confluency was reached.
(§3) It is at this stage that all wells were rinsed in PBS after aspirating the growth media. The compound(s) to be tested were previously mixed into a suitable solvent (e.g., DMSO or ethanol) that can be diluted to the desired concentration of test compound (10 μl) in the culture wells without exceeding maximum solvent concentrations and adversely effecting cell viability, and mixed with basal media. NOTE: Standard maximum levels of solvent are 0.1% for DMSO and 0.5% for ETOH. The concentration of each test compound is found in Tables 1 & 2.
(§4) Every 2 wells on the 6 well plate served as a biological replicate for the purposes of RNA isolation and genetic expression evaluations making each 6 well dish an n=3 for the test compound(s) contained in the media. Negative control plates (no test compound(s) and only basal media) were also generated. The plates were returned to the incubator for 24 hrs.
At the end of the 24 hr time period, the plates were removed from the incubator, the test media aspirated, and the cells rinsed with PBS. RNA isolation is performed using the BioRad Aurum Total RNA Mini Kit (Hercules, Calif.) per manufacturer's protocol; which is described, in brief, below: • Add 350 μl of lysis buffer to each well. Pipet multiple times to ensure thorough lysis. Add lysed cells to the collection tube. • Add 350 μl of 70% ETOH to the collection tube and mix thoroughly. • Pipet the generated lysate onto the spin column placed in a new 2 ml tube. Centrifuge for 30 sec between 8,000 and 10,000 g. • Place the spin column containing the now bound RNA, in a new 2 ml tube. Add 700 μl of low stringency wash solution to the spin column. Centrifuge for 30 sec between 8,000 and 10,000 g. […] Allow 1 minute for saturation of the membrane and then centrifuge for 2 minutes to complete the RNA elution. • Quantify the quantity of RNA and store at −20 C° until use (no more than 1 month) […]

[2] = system: NFKB1; test: Gene expression custom microarray, human skin fibroblasts (Example 1): NFKB1; settings: for fold induction at 10 µM: Skin fibroblast, read-out: NFKB1↓ gene expression, fold increase or decrease vs untreated cells
Source text: as §1, §2
as §3, with “ETOH.” for “ETOH. The concentration of each test compound is found in Tables 1 & 2.”
as §4
(§5) At the end of the 24 hr time period, the plates were removed from the incubator, the test media aspirated, and the cells rinsed with PBS. RNA isolation is performed using the BioRad Aurum Total RNA Mini Kit (Hercules, Calif.) per manufacturer's protocol; which is described, in brief, below: • Add 350 μl of lysis buffer to each well. Pipet multiple times to ensure thorough lysis. Add lysed cells to the collection tube. • Add 350 μl of 70% ETOH to the collection tube and mix thoroughly. • Pipet the generated lysate onto the spin column placed in a new 2 ml tube. Centrifuge for 30 sec between 8,000 and 10,000 g. • Place the spin column containing the now bound RNA, in a new 2 ml tube. Add 700 μl of low stringency wash solution to the spin column. Centrifuge for 30 sec between 8,000 and 10,000 g. Discard the flow through and replace spin column. • Add 80 μl of DNase I dilution to the spin column and incubate at room temperature for 15 minutes. • Add 700 μl of high stringency wash solution to the column and centrifuge for 30 sec between 8,000 and 10,000 g. Discard flow through. • Add 700 μl of low stringency wash solution to the column and centrifuge for 60 sec between 8,000 and 10,000 g. Discard flow through. • Centrifuge for 2 minutes to remove residual wash solution. • Transfer spin column to new 1.5 ml collection tube and add 80 μl of elution solution to the column. Allow 1 minute for saturation of the membrane and then centrifuge for 2 minutes to complete the RNA elution. • Quantify the quantity of RNA and store at −20 C° until use (no more than 1 month)
(§6) The genes tested were: • Cannabinoid receptor 1 (CB1(CNR1)) • Cannabinoid receptor 2 (CB2 (CNR2)) • Fatty acid amide hydrolase (FAAH) • Monoacylglycerol lipase (MGLL, i.e., MAGL) • Peroxisome proliferator-activated receptor gamma (PPARG) • Nuclear factor kappa-light-chain-enhancer of activated B cells (NFκβ) • Interleukin 1 Alpha (IL1alpha) • Cyclooxygenase 1 (PTGS1, i.e., COX1) • Transient receptor potential cation channel subfamily A member 1 (TRPA1) • Transient receptor potential cation channel subfamily V member 1 (TRPV1) • Transient receptor potential cation channel subfamily M member 8 (TRPM8) • Hemoglobin Subunit Beta (HBB) REFERENCE GENE • Ribosomal Protein L13a (RPL13A) REFERENCE GENE

[3] = system: IL1A; test: Gene expression custom microarray, human skin fibroblasts (Example 1): IL1A; settings: 24 hr; for IL1A↓ gene expression, fold increase or decrease vs untreated cells: 10 uM; for fold induction at 10 µM: Skin fibroblast, read-out: IL1A↓ gene expression, fold increase or decrease vs untreated cells
Source text: as §1, §2, §3, §4, §5
(§7) The genes tested were: • Cannabinoid receptor 1 (CB1(CNR1)) • Cannabinoid receptor 2 (CB2 (CNR2)) • Fatty acid amide hydrolase (FAAH) • Monoacylglycerol lipase (MGLL, i.e., MAGL) • Peroxisome proliferator-activated receptor gamma (PPARG) • Nuclear factor kappa-light-chain-enhancer of activated B cells (NFκβ) • Interleukin 1 Alpha (IL1alpha) • Cyclooxygenase 1 (PTGS1, i.e., COX1) • Transient receptor potential cation channel subfamily A member 1 (TRPA1) • Transient receptor potential cation channel subfamily V member 1 (TRPV1) • Transient receptor potential cation channel subfamily M member 8 (TRPM8) • Hemoglobin Subunit Beta (HBB) REFERENCE GENE • Ribosomal Protein L13a (RPL13A) REFERENCE GENE […]

[4] = system: TRPA1; test: Gene expression custom microarray, human skin fibroblasts (Example 1): TRPA1; settings: for fold induction at 10 µM: Skin fibroblast, read-out: TRPA1↑ gene expression, fold increase or decrease vs untreated cells
Source text: as §1, §2, §3, §4, §5, §7

[5] = system: FAAH; test: Gene expression custom microarray, human skin fibroblasts (Example 1): FAAH; settings: for fold induction at 10 µM: Skin fibroblast, read-out: FAAH↓ gene expression, fold increase or decrease vs untreated cells
Source text: as §1, §2, §3, §4, §5, §7

[6] = system: PPARG; test: Gene expression custom microarray, human skin fibroblasts (Example 1): PPARG; settings: for fold induction at 10 µM: Skin fibroblast, read-out: PPARG↑ gene expression, fold increase or decrease vs untreated cells
Source text: as §1, §2
as §3, with “ETOH.” for “ETOH. The concentration of each test compound is found in Tables 1 & 2.”
as §4, §5, §6

[7] = system: TRPM8; test: Gene expression custom microarray, human skin fibroblasts (Example 1): TRPM8; settings: 24 hr; for TRPM8↑ gene expression, fold increase or decrease vs untreated cells: 10 uM; for fold induction at 10 µM: Skin fibroblast, read-out: TRPM8↑ gene expression, fold increase or decrease vs untreated cells
Source text: as §1, §2, §3, §4, §5, §7

[8] = system: PTGS1; test: Gene expression custom microarray, human skin fibroblasts (Example 1): PTGS1; settings: for fold induction at 10 µM: Skin fibroblast, read-out: PTGS1↓ gene expression, fold increase or decrease vs untreated cells
Source text: as §1, §2, §3, §4, §5, §7

[9] = system: MAGL; test: Gene expression custom microarray, human skin fibroblasts (Example 1): MAGL; settings: for fold induction at 10 µM: Skin fibroblast, read-out: MAGL↓ gene expression, fold increase or decrease vs untreated cells
Source text: as §1, §2, §3, §4, §5, §7

[10] = system: CNR2; test: Gene expression custom microarray, human skin fibroblasts (Example 1): CNR2; settings: human skin fibroblasts, 10 uM, 24 hr; for fold induction at 10 µM: Skin fibroblast, read-out: CNR2↑ gene expression, fold increase or decrease vs untreated cells
Source text: as §1, §2, §3, §4, §5, §7

[11] = system: CNR1; test: Gene expression custom microarray, human skin fibroblasts (Example 1): CNR1; settings: for fold induction at 10 µM: Skin fibroblast, read-out: CNR1↑ gene expression, fold increase or decrease vs untreated cells
Source text: as §1, §2, §3, §4, §5, §7

[12] = human skin fibroblasts, 10 uM, 24 hr

Row | Compound | TRPV1↑ gene expression, fold increase or decrease vs untreated cells [1] | NFKB1↓ gene expression, fold increase or decrease vs untreated cells [2, 12] | IL1A↓ gene expression, fold increase or decrease vs untreated cells [3] | TRPA1↑ gene expression, fold increase or decrease vs untreated cells [4, 12] | FAAH↓ gene expression, fold increase or decrease vs untreated cells [5, 12] | PPARG↑ gene expression, fold increase or decrease vs untreated cells [6, 12] | TRPM8↑ gene expression, fold increase or decrease vs untreated cells [7] | PTGS1↓ gene expression, fold increase or decrease vs untreated cells [8, 12] | MAGL↓ gene expression, fold increase or decrease vs untreated cells [9, 12] | CNR2↑ gene expression, fold increase or decrease vs untreated cells [10] | CNR1↑ gene expression, fold increase or decrease vs untreated cells [11, 12] | fold induction at 10 µM [2, 12] | fold induction at 10 µM [8, 12] | fold induction at 10 µM [3] | fold induction at 10 µM [4, 12] | fold induction at 10 µM [5, 12] | fold induction at 10 µM [6, 12] | fold induction at 10 µM [7] | fold induction at 10 µM [9, 12] | fold induction at 10 µM [10] | also measured
1 | C[C@@H]1C(=O)O[C@H]2[C@H](O)[C@@]34[C@H]5C[C@@H](C(C)(C)C)[C@]36[C@@H](OC(=O)[C@@H]6O)O[C@@]4(C(=O)O5)[C@@]12O [Ginkolide, Ginkolide B] | −2.6 fold | −1.2 fold | −3.3 fold | 1.1 fold | −1.1 fold | −1.3 fold | 2.1 fold | −1.3 fold | 2.3 fold | −1.2 fold | 1.1 fold | – | – | – | – | – | – | – | – | – | –
2 | CC(C)=CCC[C@](C)(O[C@@H]1O[C@H](CO[C@@H]2O[C@@H](CO)[C@H](O)[C@H]2O)[C@@H](O)[C@H](O)[C@H]1O)[C@H]1CC[C@]2(C)[C@@H]1[C@H](O)C[C@@H]1[C@@]3(C)CC[C@H](O[C@@H]4O[C@H](CO)[C@@H](O)[C@H](O)[C@H]4O[C@@H]4O[C@H](CO)[C@@H](O)[C@H](O)[C@H]4O)C(C)(C)[C@@H]3CC[C@]12C [Ginsenoside, ginsenoside RC] | – | – | – | – | – | – | – | – | – | – | – | 1.8 | 7.9 | – | – | – | – | – | – | – | fold induction at 10 µM ([4]; Homo sapiens, 24 h): 1.5
3 | O=c1cc(-c2ccccc2)oc2cc(O)ccc12 [7-Hydroxyflavone] | – | – | – | – | – | – | – | – | – | – | – | – | – | – | – | – | – | – | – | – | fold induction at 10 µM ([2]; Homo sapiens, 24 h): 1.1; fold induction at 10 µM ([5]; Homo sapiens, 24 h): 1.2; fold induction at 10 µM ([6]; Homo sapiens, 24 h): 1.4; fold induction at 10 µM ([8]; Homo sapiens, 24 h): 1.4; fold induction at 10 µM ([9]; Homo sapiens, 24 h): 2
4 | C=CCc1ccc(O)c(-c2ccc(O)c(CC=C)c2)c1 [Honokiol] | – | – | – | – | – | – | – | – | – | – | – | 1.6 | 1.5 | 1.8 | 1.4 | 2.3 | 2.3 | 1.8 | 2.7 | 1.3 | fold induction at 10 µM ([11]; Homo sapiens, 24 h): 1.2
5 | CCCCCCCC/C=C\CCCCCCCC(=O)NCCO [N-Oleylethanolamide] | −1.6 fold | 1.5 fold | −1.9 fold | 1.1 fold | −1.1 fold | 2.4 fold | −1.4 fold | 1.5 fold | 2.5 fold | −2.4 fold | −1.9 fold | – | – | – | – | – | – | – | – | – | –
6 | COc1cc(/C=C/C(=O)CC(=O)/C=C/c2ccc(O)c(OC)c2)ccc1O [Curcumin] | – | – | – | – | – | – | – | – | – | – | – | 1.1 | – | 4.9 | 4.9 | 1.8 | – | 47.9 | – | 55.4 | fold induction at 10 µM [11, 12]: 47.4
7 | C=C1CC/C=C(\C)CC[C@@H]2[C@@H]1CC2(C)C [B-Caryphyllene, B-Caryophyllene] | 2 fold | −1.3 fold | 0 fold | 0 fold | −1.6 fold | −1.6 fold | 5.5 fold | −1.5 fold | 1 fold | 0 fold | 0 fold | – | – | – | – | – | – | – | – | – | –
8 | C=CCc1ccc(O)c(OC)c1 [Eugenol] | – | – | – | – | – | – | – | – | – | – | – | – | – | 39.2 | 30.1 | 3 | 1.6 | 152 | – | 109 | fold induction at 10 µM [11, 12]: 148
9 | COC(=O)c1ccccc1O [Methyl Salicylate, reference compound] | – | – | – | – | – | – | – | – | – | – | – | 1.9 | 1.4 | – | 3 | – | 1.8 | – | 2.4 | – | –
10 | CC1CCC(C(C)C)C(O)C1 (stereo not shown) [Menthol, reference compound] | – | – | – | – | – | – | – | – | – | – | – | 3.4 | 7.8 | – | 2.5 | 2 | 1.8 | – | 2.7 | – | –
